In patent US20160251367A1, “SYNTHESIS OF TRITOQUALINE SALTS” (Chrysalis Pharma, priority 2014, published 2016):
Converted amounts (≈) assume the structure as drawn. Like-named read-outs stand apart in the source and are kept apart here.

Assay: physchem
Assay type: physicochemical
Text: The dissolution tests show a very substantial and surprising increase in tritoqualine.

| Molecule | solubility (water) | increase of the initial solubility of tritoqualine in water | solubility |
| --- | --- | --- | --- |
| CC(=O)O.CCOc1c(N)c2c(c(OCC)c1OCC)C(C1c3c(cc4c(c3OC)OCO4)CCN1C)OC2=O (centres unmarked) [Tritoqualine acetate, tritoqualine acetate] |  | 1500 times | 0.75 M/L |
| CC1(C)C2CCC1(CS(=O)(=O)O)C(=O)C2.CCOc1c(N)c2c(c(OCC)c1OCC)C(C1c3c(cc4c(c3OC)OCO4)CCN1C)OC2=O (centres unmarked) [Tritoqualine camphorsulfonate, tritoqualine camphorsulfonate] |  | 11 000 times |  |
| CCOc1c(N)c2c(c(OCC)c1OCC)C(C1c3c(cc4c(c3OC)OCO4)CCN1C)OC2=O.O=C(O)C=CC(=O)O (centres unmarked) [Tritoqualine fumarate, tritoqualine fumarate] |  | 15 000 times |  |
| CCOc1c(N)c2c(c(OCC)c1OCC)C(C1c3c(cc4c(c3OC)OCO4)CCN1C)OC2=O.Cl (centres unmarked) [Tritoqualine hydrochloride, tritoqualine hydrochloride] |  | 500 times | 0.25 M/L |
| CCOc1c(N)c2c(c(OCC)c1OCC)C(C1c3c(cc4c(c3OC)OCO4)CCN1C)OC2=O.CS(=O)(=O)O (centres unmarked) [Tritoqualine methylsulfonate, tritoqualine methylsulfonate] |  | 50 000 times |  |

Further lines, results first:

| solubility (water) | increase of the initial solubility of tritoqualine in water | solubility | Molecule |
| --- | --- | --- | --- |
| 500 µM (≈ 250 µg/mL) |  |  | CCOc1c(N)c2c(c(OCC)c1OCC)C(C1c3c(cc4c(c3OC)OCO4)CCN1C)OC2=O (racemic) [tritoqualine, 7-Amino-4,5,6-triethoxy-3-(5,6,7,8-tetrahydro-4-methoxy-6-methyl-1,3-dioxolo[4,5-g]isoquinolin-5-yl) phthalide] |
|  | 31 000 times |  | CCOc1c(N)c2c(c(OCC)c1OCC)C(C1c3c(cc4c(c3OC)OCO4)CCN1C)OC2=O.O=P(O)(O)O (centres unmarked) [Tritoqualine phosphate, tritoqualine phosphate] |
|  | 2500 times | 1.25 M/L | tritoqualine sulfate |
